Assay results published in PubChem BioAssay AID1963984 (Molecular Pharmacology Branch, DTP, NCI, 2024).
pIC50: −log10 of the molar value.

Test system: 233499-124-R-J3-PDC spheroids with HUVEC/MSC, viability
Assay: Anticancer human tumor 233499-124-R-J3-PDC patient-derived colon adenocarcinoma cell line growth inhibition [PI3K]
Conditions: for pIC50: curve of first compound; for viability, T/C: stronger effect = lower value
Description: Combinatorial screen of targeted agents with the PI3K inhibitors inavolisib, alpelisib, duvelisib, and copanlisib in multi-cell type tumor spheroids
A high-throughput screen of multi-cell type tumor spheroids was designed to identify active combinations of targeted small molecules and PI3K pathway inhibitors. Complex spheroids include a stromal component modeled by human endothelial cells (HUVEC) and fibroblasts modeled by human mesenchymal stem cells (MSCs). The concentration ranges selected for each drug and investigational agent were based upon clinically achievable concentrations if the clinical Cmax of the agent was known.
Compounds. The drugs and investigational agents: inavolisib (NSC800729), alpelisib (NSC765974), duvelisib (NSC772469), copanlisib (NSC816437), ipatasertib (NSC767898), afuresertib (NSC778305), talazoparib (NSC767125), sapanisertib (NSC764658), selumetinib (NSC741078), tovorafenib (DAY101, NSC766906), vemurafenib (NSC761431), ravoxertinib (NSC781343), sotorasib (NSC818433), MRTX1133 (NSC 836407), abemaciclib (NSC 768073), palbociclib (NSC758247), venetoclax (NSC 766270), SY5609 (NSC837396), enzalutamide (NSC755605), and darolutamide (NSC825331), were obtained from the National Cancer Institute (NCI) Developmental Therapeutics Program Chemical Repository. The FDA-approved anticancer drug set is available from the NCI Developmental Therapeutics Program. […] The stock solutions were prepared in dimethyl sulfoxide (DMSO, Sigma-Aldrich, St. Louis, MO, cat. D2650) at 800-fold the tested concentration and stored at -70 degrees C prior to their use. All drugs and investigational agents were tested over a range starting from a high concentration at or near the clinical Cmax and decreasing in half-log increments. If the clinical Cmax for an agent had not been determined, the highest concentration tested was 10 microM.
Cell Culture. All cells were maintained in an incubator at 37 degrees C and 5% CO2 with 95% humidity. The PDC lines were cultured according to standard operating procedures established by the NCI PDMR (https://pdmr.cancer.gov/sops/default.htm). All PDCs were thawed and cultured in Matrigel-coated flasks prepared with a working solution of 1X Ham's F-12 nutrient mix, without supplementation (Invitrogen, Waltham, MA, cat. 11765054), 100 U/mL penicillin-streptomycin (Invitrogen, cat. 15140122), and 2.5% Matrigel (Corning Inc., Corning, NY, cat. 354248) for the first three passages. The 354836-022-R-J1-PDC, 475296-252-R-J1-PDC, and 997726-040-R-J2-PDC lines were cultured in 6A media, which includes advanced DMEM/F-12 (Thermo Fisher Scientific, cat. 12634028), 10 mM HEPES (Thermo Fisher Scientific, cat. 15630080), 1X GlutaMAX supplement (Thermo Fisher Scientific, cat. 35050061), 0.1 mg/mL primocin (InvivoGen, San Diego, CA, cat. ant-pm-2), 10% defined fetal bovine serum, heat inactivated (HyClone Laboratories Inc., Logan, UT, cat. SH30070.03HI), 50% L-WRN conditioned media (ATCC, cat. CRL-3276), 1.25 mM N-Acetyl-L-cysteine (Sigma-Aldrich, cat. A9165), 10 mM nicotinamide (Sigma-Aldrich, cat. N0636), 1X B-27 supplement (Thermo Fisher Scientific, cat. 17504044), 1X N-2 supplement (Thermo Fisher Scientific, cat. 17502048), and 10 microM Y-27632 dihydrochloride (Tocris Bioscience, Bristol, United Kingdom, cat. 1254). The 624824-186-R-J2-PDC line was cultured in 6C/Colon 1B media, which includes all 6A media components plus 50 ng/mL human EGF recombinant protein (Thermo Fisher Scientific, cat. PHG0311). […]

[1] = second compound 0.00316 µM, first compound 0.0316 µM
[2] = second compound 0.00316 µM, first compound 0.1 µM
[3] = second compound 0.00316 µM, first compound 0.316 µM
[4] = second compound 0.00316 µM, first compound 1 µM
[5] = second compound 0.00316 µM, first compound 3.16 µM
[6] = second compound 0.00316 µM, first compound 10 µM
[7] = second compound 0.01 µM, first compound 0.0316 µM
[8] = second compound 0.01 µM, first compound 0.1 µM
[9] = second compound 0.01 µM, first compound 0.316 µM
[10] = second compound 0.01 µM, first compound 1 µM
[11] = second compound 0.01 µM, first compound 3.16 µM
[12] = second compound 0.01 µM, first compound 10 µM
[13] = second compound 0.0316 µM, first compound 0.0316 µM
[14] = second compound 0.0316 µM, first compound 0.1 µM
[15] = second compound 0.0316 µM, first compound 0.316 µM
[16] = second compound 0.0316 µM, first compound 1 µM
[17] = second compound 0.0316 µM, first compound 3.16 µM
[18] = second compound 0.0316 µM, first compound 10 µM
[19] = second compound 0.1 µM, first compound 0.0316 µM
[20] = second compound 0.1 µM, first compound 0.1 µM
[21] = second compound 0.1 µM, first compound 0.316 µM
[22] = second compound 0.1 µM, first compound 1 µM
[23] = second compound 0.1 µM, first compound 3.16 µM
[24] = second compound 0.1 µM, first compound 10 µM
[25] = second compound 0.316 µM, first compound 0.0316 µM
[26] = second compound 0.316 µM, first compound 0.1 µM
[27] = second compound 0.316 µM, first compound 0.316 µM
[28] = second compound 0.316 µM, first compound 1 µM
[29] = second compound 0.316 µM, first compound 3.16 µM
[30] = second compound 0.316 µM, first compound 10 µM
[31] = second compound 1 µM, first compound 0.0316 µM
[32] = second compound 1 µM, first compound 0.1 µM
[33] = second compound 1 µM, first compound 0.316 µM
[34] = second compound 1 µM, first compound 1 µM
[35] = second compound 1 µM, first compound 3.16 µM
[36] = second compound 1 µM, first compound 10 µM
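Note: spheroids exposed to agents for seven days before readout.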
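Throughout, for viability, T/C: percent viability relative to DMSO vehicle control taken as 100%.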

CC1(C)CCC(Nc2ncc(C(F)(F)F)c(-c3c[nH]c4c(P(C)(C)=O)c(C#N)ccc34)n2)CN1 (centres undefined) + COc1c(OCCCN2CCOCC2)ccc2c3n(c(=NC(=O)c4cnc(N)nc4)nc12)CCN3
pIC50 (second compound 0.00316 µM): 6.54
pIC50 (second compound 0.01 µM): 6.69
pIC50 (second compound 0.0316 µM): 7.25
pIC50 (second compound 0.1 µM): 6.99
pIC50 (second compound 0.316 µM): > 7.50
pIC50 (second compound 1 µM): > 7.50
viability, T/C [1]: 64.2%
viability, T/C [2]: 73.2%
viability, T/C [3]: 42%
viability, T/C [4]: 29.5%
viability, T/C [5]: 29.5%
viability, T/C [6]: 5.37%
viability, T/C [7]: 56.5%
viability, T/C [8]: 67.6%
viability, T/C [9]: 42.7%
viability, T/C [10]: 15.7%
viability, T/C [11]: 25.4%
viability, T/C [12]: 5.25%
viability, T/C [13]: 58.4%
viability, T/C [14]: 43.3%
viability, T/C [15]: 29.8%
viability, T/C [16]: 29.7%
viability, T/C [17]: 37.7%
viability, T/C [18]: 2.18%
viability, T/C [19]: 58.3%
viability, T/C [20]: 53.9%
viability, T/C [21]: 37.2%
viability, T/C [22]: 26.1%
viability, T/C [23]: 23.7%
viability, T/C [24]: 2.55%
viability, T/C [25]: 33.5%
viability, T/C [26]: 29.4%
viability, T/C [27]: 24.3%
viability, T/C [28]: 14.7%
viability, T/C [29]: 16.3%
viability, T/C [30]: 1.17%
viability, T/C [31]: 8.22%
viability, T/C [32]: 10.7%
viability, T/C [33]: 8.48%
viability, T/C [34]: 14.2%
viability, T/C [35]: 6.77%
viability, T/C [36]: 1.03%

C[C@@H](NC(=O)c1ncnc(N)c1Cl)c1ncc(C(=O)Nc2cc(C(F)(F)F)c(Cl)cn2)s1 + COc1c(OCCCN2CCOCC2)ccc2c3n(c(=NC(=O)c4cnc(N)nc4)nc12)CCN3
pIC50 (second compound 0.00316 µM): < 5.00
pIC50 (second compound 0.01 µM): < 5.00
pIC50 (second compound 0.0316 µM): < 5.00
pIC50 (second compound 0.1 µM): < 5.00
pIC50 (second compound 0.316 µM): > 7.50
pIC50 (second compound 1 µM): > 7.50
viability, T/C [1]: 97.6%
viability, T/C [2]: 127%
viability, T/C [3]: 126%
viability, T/C [4]: 103%
viability, T/C [5]: 120%
viability, T/C [6]: 104%
viability, T/C [7]: 94.1%
viability, T/C [8]: 103%
viability, T/C [9]: 105%
viability, T/C [10]: 117%
viability, T/C [11]: 121%
viability, T/C [12]: 123%
viability, T/C [13]: 113%
viability, T/C [14]: 107%
viability, T/C [15]: 109%
viability, T/C [16]: 96.1%
viability, T/C [17]: 107%
viability, T/C [18]: 106%
viability, T/C [19]: 85.6%
viability, T/C [20]: 79.4%
viability, T/C [21]: 85.5%
viability, T/C [22]: 69.8%
viability, T/C [23]: 97.9%
viability, T/C [24]: 99.3%
viability, T/C [25]: 44.8%
viability, T/C [26]: 31.8%
viability, T/C [27]: 21%
viability, T/C [28]: 37.7%
viability, T/C [29]: 45.6%
viability, T/C [30]: 31.2%
viability, T/C [31]: 6.68%
viability, T/C [32]: 10.7%
viability, T/C [33]: 13.8%
viability, T/C [34]: 7.94%
viability, T/C [35]: 20%
viability, T/C [36]: 1.67%
